Values joined by “and” are separate entries in the source; they are usually repeats but may differ in a detail not shown here. Equal entries are not always repeated. Where two headings read alike, the source gives them in different places.
How the values were obtained:
[1] = tested on: FtsZ (B. subtilis 2020, Pxyl-gfp-ftsZ); assay: Localization of FtsZ (cell division reporter); type: cell-based, Bacillus subtilis; details: 3.12 µM Pt1, 25 µM Pt8; 30 and 60 min
Procedure: (§1) B. subtilis strains were grown in LB containing appropriate inducer concentrations as specified in Table S10. After reaching an OD600 of 0.3, cultures were split and treated with antibiotics. Samples were withdrawn after 30 and 60 min of treatment, spotted on glass slides covered with 1% agarose films, and immediately imaged.
Figure S8: Localization of FtsZ in B. subtilis 2020 (Pxyl-gfp-ftsZ). Cultures were treated with
(§2) (1 picture or pasted object on this page, not shown here)

[2] = tested on: RpsB-GFP (B. subtilis 1049); assay: Localization of RpsB-GFP (translation reporter); type: cell-based, Bacillus subtilis; details: 3.12 µM Pt1, 25 µM Pt8; 30 and 60 min
Procedure: as §1
Figure S10: Localization of RpsB-GFP (B. subtilis 1049). Cultures were treated with 3.12 µM
as §2

Vero cells = assay: Cytotoxicity against Vero cells (MTT assay); type: cell-based, African Green Monkey; details: 72 h
Procedure: Cell toxicity was performed against Vero cells using the MTT assay. ~10^3 cells/well were seeded in 96 well plate and incubated at 37 °C with 5% CO2 atmosphere. […] After the incubation was over, MTT was added in each well, incubated at 37 °C for further 4 h, residual medium was discarded, 0.1 mL of DMSO was added to solubilize the formazan crystals and OD540 was taken for the calculation of IC50. Doxorubicin was used as positive control and each experiment was repeated in triplicate.

MRSA NRS 100 = assay: Broth microdilution MIC, MRSA NRS 100; type: cell-based, S. aureus; details: MRSA NRS 100
Procedure: (§3) The data is given in supporting information (Table S5). Before starting the experiment, a single colony was picked from MHA plate, inoculated in MHBII and incubated overnight at 37 °C with shaking for 18–24 h to get the starter culture. Antibiotic susceptibility testing was conducted according to the CLSI (Clinical & Laboratory Standards Institute) guidelines using the broth microdilution assay. 10 mg/mL stock solutions of test compounds were prepared in DMSO. Bacterial cultures were inoculated in MHBII and optical density (OD) was measured at 600 nm, followed by dilution to achieve ~10^6 CFU/mL. The compounds were tested from 64 to 0.5 mg/L in two-fold serial diluted fashion with 2.5 μL of each concentration added to well of a 96-well round bottom microtiter plate. Later, 97.5 μL of bacterial suspension was added to each well containing either test compound or appropriate controls. […] The MIC is defined as the lowest concentration of the compound at which there is absence of visible growth. For each test compound, MIC determinations were carried out independently three times using duplicate samples.

λ-phage DNA = assay: Single-molecule imaging of YOYO-1-labeled λ-DNA, DNA length analysis; type: biochemical
[3] = tested on: methicillin-sensitive Staphylococcus aureus (MSSA), clinical isolate; assay: MIC assay, MSSA clinical isolate; type: cell-based; details: MSSA clinical isolate
HEK293T cells = type: cell-based, Human
Procedure: The control for the experiments was DMSO. HEK293T cells were cultivated in DMEM high glucose supplemented with 10% heat-inactivated fetal bovine serum, 100 U/mL of penicillin and streptomycin and maintained at a temperature of 37 °C with 5% CO2. Initially, 4000/well of cells were seeded into 96-well plates and incubated for 24 h before being exposed to compounds at concentrations ranging from 0.78, 50, and 100 µM. After 24 h of incubation, the compounds were added and serially diluted and incubated for 24 and 48 h at 37 °C 5% CO2, the cells were stained with alamar Blue, and the fluorescence excitation/ emission 540 nm/590 nm was measured using 96 well-plate reader. CC50 is defined as the lowest concentration of compound which leads to a 50% reduction in cell viability compared to untreated and DMSO control. Each experiment was repeated in triplicate.

E. coli tolC = tested on: E. coli tolC; design: method as in PMID 34018686; details: efflux-impaired mutant; cited from earlier work
MRSA NRS 193 = assay: Broth microdilution MIC, MRSA NRS 193; type: cell-based, S. aureus; details: MRSA NRS 193
Procedure: as §3

Bacillus subtilis MW168 = assay: MIC assay, B. subtilis MW168; type: cell-based; details: B. subtilis MW168
[4] = Stability by 1H and 195Pt NMR; type: physicochemical
Procedure: Measurements were repeated after the 24 h and 48 h of incubations at 37 °C.
Then, 10% D2O was added and 1H NMR was recorded immediately and after 24 h of incubation at 37 °C.

E. coli ATCC 25922 = assay: Broth microdilution MIC, E. coli ATCC 25922; type: cell-based
Procedure: as §3

VRSA VRS 1 = assay: Broth microdilution MIC, VRSA VRS 1; type: cell-based, S. aureus; details: VRSA VRS 1
Procedure: as §3

E. coli lpxC = details: lipid A biosynthesis-impaired mutant; cited from earlier work
P. aeruginosa ATCC 27853 = assay: Broth microdilution MIC, P. aeruginosa ATCC 27853; type: cell-based, Pseudomonas aeruginosa
Procedure: as §3

MRSA NRS 192 = assay: Broth microdilution MIC, MRSA NRS 192; type: cell-based, S. aureus; details: MRSA NRS 192
Procedure: as §3

B. subtilis 168CA = assay: MIC against B. subtilis 168CA (mode of action conditions); type: cell-based, Bacillus subtilis; details: 16 h
Procedure: To establish a starting concentration for the OSC assay, MICs against parent strain 168CA were determined under conditions equivalent to those used for mode of action assays. MICs were determined according to the Clinical Laboratory Standardization Institute (CLSI) in a serial microdilution assay. […] Cultures were incubated for 16 h at 37 °C under constant agitation. MICs were used as basis for OSC determination. To this end, growth curves were recorded using optical density (OD) measurements. Culture volumes of 20 mL were grown until reaching an OD600 of 0.3. […] An untreated culture served as control. Growth was followed until cultures reached the stationary phase. A concentration achieving 50–70% growth inhibition in exponential phase was selected as optimal stressor concentration.

VRSA VRS 4 = assay: Broth microdilution MIC, VRSA VRS 4; type: cell-based, S. aureus; details: VRSA VRS 4
Procedure: as §3

A. baumanii BAA 1605 = assay: Broth microdilution MIC, A. baumannii BAA 1605; type: cell-based, Acinetobacter baumannii
Procedure: as §3

MRSA NRS 198 = assay: Broth microdilution MIC, MRSA NRS 198; type: cell-based, S. aureus; details: MRSA NRS 198
Procedure: as §3

Structure (SMILES): C1=C\CC/C=C\CC/1.[Cl][Pt][Cl] [Pt1]
- localization of FtsZ [1]: remained unaffected
- localization of RpsB [2]: Neither protein showed a distinct phenotype
- IC50 (Vero cells): > 134 µM
- MIC (MRSA NRS 100): 0.67 to 1.34 µM
- DNA molecule length shift (λ-phage DNA; 3.125 µM Pt1, 25 µM Pt8, 100 µM CisPt, 10 min): shorter fragments
- DNA fragmentation at swapped (equimolar comparison) concentrations (λ-phage DNA; 25 µM Pt1, 3.125 µM Pt8): stronger DNA fragmentation
- MIC [3]: 3.13 to 6.25 µM
- IC50 (HEK293T cells; 24 h): 74.1 ± 4.1 µM
- IC50 (HEK293T cells; 48 h): 65.3 ± 2.7 µM
- antibacterial activity (E. coli tolC): inactive
- MIC (MRSA NRS 193): 0.25 µg/mL and 0.67 µM
- MIC (Bacillus subtilis MW168): 6.25 µM
- time compound remains intact in aqueous environment (1H-NMR) ([4]; DMSO-d6 with 10% D2O, 37 °C): at least 24 h
- time compound remains intact (NMR) ([4]; approximately 7 mM in DMSO-d6, 37 °C, 1H and 195Pt NMR): at least 48 h
- MIC (E. coli ATCC 25922): > 64 µg/mL
- MIC (VRSA VRS 1): 0.67 to 1.34 µM
- antibacterial activity (E. coli lpxC): inactive
- MIC (P. aeruginosa ATCC 27853): > 64 µg/mL
- MIC (MRSA NRS 192): 0.125 – 0.25 µg/mL and 0.33–0.67 µM
- MIC (B. subtilis 168CA): 6.25 µM
- MIC (VRSA VRS 4): 0.67 to 1.34 µM
- MIC (A. baumanii BAA 1605): > 64 µg/mL
- MIC (MRSA NRS 198): 0.25 µg/mL and 0.67 µM

From paper PMC13183915, “A platinum butterfly effect: small changes turn an anticancer drug into a non-toxic metalloantibiotic with in vivo efficacy” (npj Antimicrobials and Resistance, 2026)
